This is an account of results in patent US20170290844A1, “Methods of Treatment” (GlaxoSmithKline Intellectual Property Development Limited, priority 2014, published 2017).

One test deals with T-cell. The experiment in a line: T-cell chemotaxis in response to supernatants from HRV16 infected COPD BECs. The note with it: supernatants of COPD BECs 72 h post HRV16 infection. The test is classed as cell-based.
Another test has as its system healthy neutrophil. The test is described as follows: Neutrophil chemotaxis in response to supernatants from HRV16 infected COPD BECs. The test is classed as cell-based. The note with it: supernatants of COPD BECs 72 h post HRV16 infection, versus untreated infected samples.
Test [1] deals with COPD BECs infected with HRV16. The experiment in a line: Gene expression by real-time PCR in ALI cultures of COPD BECs infected with HRV16. The test is classed as cell-based, human. The note with it: 24 h post HRV16 infection. An excerpt:
(§1) Air-liquid interface (ALI) cultured human bronchial epithelial cells (BECs) from chronic obstructive pulmonary disease (COPD) donors were either bought fully differentiated (Epithelix Sarl, Cat. No. EP10MD) or cultured in-house using the Pneumocult method (StemCell Technologies, Cat. No. 05001), in a 24-well format. Primary cells for in-house ALI cultures were obtained from Epithelix Sarl, Cat. No. EP18AB.
(§2) Prior to infection, ALI cells were washed twice in warm PBS (with Ca2^+/Mg2^+). Subsequently, human rhinovirus 16 was applied at multiplicity of infection (MOI) of 1 or 5 in a total volume of 50 μl culture medium. The virus was allowed to attach for 1h at room temperature with gentle agitation. […]
(§3) Ribonucleic acid (RNA) from ALI cultured COPD BECs was prepared by lysing the cells in RLT buffer supplied with Promega Total RNA Isolation System (Promega, Cat. No. Z3505). […] Amplification of specific targets was performed by quantitative real-time polymerase chain reaction (qRT-PCR) using the TaqMan® gene expression system (Applied Biosystems Cat. No. 4369510) and ready to use TaqMan® primer/probes (see Table 1). […]
(In general: Quantitative PCR measures a nucleic acid by following its amplification.)

Test [2] relates to ALI cultured COPD BECs infected with HRV16. The experiment in a line: Protein secretion of immune mediators in supernatants of ALI cultured COPD BECs (MSD/ELISA). The test is classed as cell-based, human. The note with it: 72 h post HRV16 infection.
Source text: as §1, §2
Detection of secreted proteins was done on the Meso Scale Discovery (MSD®) platform according to the manufacturer's protocol. Chemokines CXCL6 and CCL5 were detected by enzyme linked immunosorbent assay (ELISA) kits both bought from R&D systems, Cat. Nos. DY333 and DRN00B, respectively. […] Analytical flow cytometry was performed using the FACSCanto II (Beckton Dickinson) and analysed using FlowJo software (Tree Star, Inc. Ashland, US).
A general note: In an ELISA, binding on a coated surface is turned into a signal by an enzyme label.

In test [3] the test system is COPD bronchial epithelial cells infected with HRV16. The experiment in a line: Genome-wide transcriptional analysis by microarray of COPD BECs infected with HRV16. The test is classed as cell-based, human. The note with it: 72 h HRV16 infection.
Source text: as §1
(§4) Prior to infection, ALI cells were washed twice in warm PBS (with Ca2^+/Mg2^+). Subsequently, human rhinovirus 16 was applied at multiplicity of infection (MOI) of 1 or 5 in a total volume of 50 μl culture medium. The virus was allowed to attach for 1h at room temperature with gentle agitation. Consequently, the virus was washed off with warm PBS (with Ca2^+/Mg2^+) and cells were further cultured at 37° C. for the indicated amount of time either with or without the addition of a rsecretase inhibitor CompA (S)-2-[2-(3,5-difluorophenyl)-acetylamino]-N—((S)-1-methyl-2-oxo-5-phenyl-2,3-dihydro-1H-benzo[e][1,4]diazepin-3-yl)-propionamide, (Calbiochem Cat. No. 565790).
as §3, with “Z3505). RNA was then extracted by using the manufacturer's protocol with automation. Murine total lung RNA was isolated by first homogenisation of the lung in 1 ml TRIZOL™ reagent, then subsequent phase separation with 1-bromo-3-chloropropane (BCP) (MRC, Cat. No. BP151). The aqueous phase was then mixed with 70% ethanol and final RNA extraction was achieved using the Promega Total RNA Isolation System with automation.” for “Z3505).”

For test [4], the system named is COPD BECs infected with HRV16. The experiment in a line: Mucociliary responses of BECs infected with HRV16 (real-time PCR, AB/PAS staining, β-tubulin IV immunofluorescence). The test is classed as cell-based, human.
Source text: as §1, §4
Ribonucleic acid (RNA) from ALI cultured COPD BECs was prepared by lysing the cells in RLT buffer supplied with Promega Total RNA Isolation System (Promega, Cat. No. Z3505). RNA was then extracted by using the manufacturer's protocol with automation. Murine total lung RNA was isolated by first homogenisation of the lung in 1 ml TRIZOL™ reagent, then subsequent phase separation with 1-bromo-3-chloropropane (BCP) (MRC, Cat. No. BP151). The aqueous phase was then mixed with 70% ethanol and final RNA extraction was achieved using the Promega Total RNA Isolation System with automation. Complementary deoxyribonucleic acid (cDNA) was synthesised by reverse transcription using MultiScribe™ Reverse Transcriptase and random primers according to the manufacturer's protocol (Applied Biosystems, Cat. No. 4368814). Amplification of specific targets was performed by quantitative real-time polymerase chain reaction (qRT-PCR) using the TaqMan® gene expression system (Applied Biosystems Cat. No. 4369510) and ready to use TaqMan® primer/probes (see Table 1). Global gene expression analysis was performed by microarray using the Human Genome U133 Plus 2.0 genechip and was done either by Epistem Ltd. (Manchester, UK) or Expression Analysis, Inc. (Durham, US). Data analysis was performed using Array Studio software (OmicSoft Corporation, Cary, US) with GC-RMA normalisation algorithm. Probes with intensities less than the geometric mean of 64 were discarded. […]
ALI cultured BECs were fixed in 4% paraformaldehyde (PFA) overnight. Mucus load was assessed by histological sections with Alcian Blue/Periodic Acid Schiff (AB/PAS) stainings and were performed by the GSK PTS histological core facility. […]

In test [5] the test system is female Balb/c mice following HRV1B inoculation. The experiment in a line: Inflammation and mucus gene expression in lungs of mice following HRV1B inoculation. In kind it is in vivo. The note with it: 8 h post infection, 0.5 mg/kg. On the procedure: For in-vivo experiments, 8 weeks old female BALB/c mice were intra-nasally infected with 1×10^8 plaque forming units (PFUs) of human rhinovirus serotype 1b (HRV1b) virus in a total of 50 μl and either treated or not with a γ-secretase inhibitor CompB N2-[(2S)-2-(3,5-difluorophenyl)-2-hydroxyethanoyl]-N1-[(7S)-5-methyl-6-oxo-6,7-dihydro-5H-dibenzo[b,d]azepin-7-yl]-L-alaninamide at a concentration of 0.5 mg/kg. To assess inflammation to the lung, broncho-alveolar lavage fluid (BALF) was collected and cellular infiltrates analysed on the Sysmex cell analysis system (Milton Keynes, UK). Subsequently, whole lung was placed into 1 ml of TRIZOL™ reagent for downstream gene expression analysis.
as §3, with “Z3505). RNA was then extracted by using the manufacturer's protocol with automation. Murine total lung RNA was isolated by first homogenisation of the lung in 1 ml TRIZOL™ reagent, then subsequent phase separation with 1-bromo-3-chloropropane (BCP) (MRC, Cat. No. BP151).” for “Z3505).”

Where [6] appears, read: healthy and COPD human BECs at ALI.

On to `C[C@H](NC(=O)Cc1cc(F)cc(F)c1)C(=O)N[C@H]1N=C(c2ccccc2)c2ccccc2N(C)C1=O` [CompA, (S)-2-[2-(3,5-difluorophenyl)-acetylamino]-N—((S)-1-methyl-2-oxo-5-phenyl-2,3-dihydro-1H-benzo[e][1,4]diazepin-3-yl)-propionamide], for which the T-cell chemotaxis result in the test on T-cell is recorded as “unaltered”. Besides, the neutrophil chemotaxis result in the test with healthy neutrophil is on record as “reduced”. Also, in test [1], the “gene expression of T-cell associated chemokines” value is reported as “less affected” and the “gene expression of neutrophilic chemokines” value is reported as “transcriptional inhibition”. Moreover, in test [2], the “secretion of T-cell associated chemokines” value is on record as “less affected” and the “secretion of neutrophilic chemokines” value is listed as “reduced secretion”. Also, in test [3], the “cilia associated genes (expression)” value is “restores cilia associated genes”, the interferon response result is “left unaltered” and the “upregulation of goblet cell associated genes” value was “inhibits upregulation of goblet cell associated genes”. The ciliation result in test [4] (COPD BECs, 72 h, ciliated cell genes and β-tubulin IV staining) is on record as “restores ciliation”. In addition, the mucus production entry in test [4] (COPD BECs, 72 h, goblet cell genes and AB/PAS staining) was “inhibits mucus production”. In addition, in test [4] (setting [6]), the loss of ciliation result is listed as “prevents the loss of ciliation” and the mucus secretion result is given as “reduces mucus secretion”.
For the compound `C[C@H](NC(=O)[C@@H](O)c1cc(F)cc(F)c1)C(=O)N[C@@H]1C(=O)N(C)c2ccccc2-c2ccccc21` [CompB, N2-[(2S)-2-(3,5-difluorophenyl)-2-hydroxyethanoyl]-N1-[(7S)-5-methyl-6-oxo-6,7-dihydro-5H-dibenzo[b,d]azepin-7-yl]-L-alaninamide], in test [5], the “mucin gene expression (Muc5ac) in lungs” value is recorded as “reduced” and the “recruitment of neutrophils into the lungs (BAL)” value is recorded as “reduced”.
